The series is described as follows: Oral bioavailability of jet-milled v. unmilled Na salt. It counts as in vivo. The settings on record: jet-milled crystals (mean particle size about 3 to 5 microns) compared with unmilled (about 20 to 25 microns); orally administered formulations. From the text: The Na salt has been jet-milled to provide crystals with a mean particle size of about 3 to 5 microns (v. about 20 to 25 microns for unmilled material) for use in orally administered formulations.

As to `O=C(NCc1ccc(F)cc1)c1nc(N2CCCCS2(=O)=O)c2cccnc2c1[O-].[Na+]` [Na salt, Sodium salt of 5-(1,1-Dioxido-1,2-thiazinan-2-yl)-N-(4-fluorobenzyl)-8-hydroxy-1,6-naphthyridine-7-carboxamide], the oral bioavailability entry was “improved oral bioavailability over the unmilled salt”.

Values taken from US6921759B2, “Aza- and polyaza-naphthalenyl carboxamides useful as HIV integrase inhibitors” (Merck & Co., Inc., priority 2000, dated 2005).
